Measurements from patent US9376429B2, “Sodium channel blockers, preparation method thereof and use thereof” (Daewoong Pharmaceutical Co., Ltd., priority 2012, dated 2016).

Each compound was assayed against T1, sodium ion channel (Nav1.7) (Homo sapiens, UniProt Q15858) (assay: Blocking effect against sodium ion channel (Nav1.7), IonFlux16 auto patch clamp, hNav1.7 HEK293 cells). Settings: peak current after 50 seconds treatment, eight concentrations.
T1 construct: host or cells: HEK293
Assay type: cell-based
Description: In order to measure the activities of the inventive compounds as antagonists, an experiment on a blocking effect against the sodium ion channel (Nav1.7) was carried out as follows.
The hNav1.7 HEK293 cell line used was a cell line having a human sodium ion channel 1.7 gene (type IX voltage-gated sodium channel alpha subunit) in human embryonic kidney (HEK) 293 cells and was purchased from Millipore. The medium used was prepared by adding 1% 100×NEAA and 10% heat inactivated FBS to DMEM F-12 and adding 1% P/S as an antibiotic thereto. G-418 as a […] was added during subculture, and the hNav1.7 HEK293 cells were cultured to a confluence of about 80% in a T75 flask in a 5% CO2 incubator at 37° C. for 2 or 3 days and detached from the flask by treatment with 0.25% trypsin solution. Then, the cells were collected by centrifugation and used in the experiment.
The compounds prepared in the Examples of the present invention were dissolved in dimethyl sulfoxide (DMSO) and used in the experiment. 90 mM and 10 mM DMSO stock solutions were prepared from each of the compounds and diluted in an extracellular solution (4 mM KCl, 138 mM NaCl, 1 mM MgCl2, 1.8 mM CaCl2, 5.6 mM glucose, 10 mM HEPES, pH 7.45) at various concentrations so that the final concentration of each compound in DMSO was 0.3% or less.
To measure the sodium ion channel blocking effect, an IonFlux16 Auto patch clamp system (Fluxion, Inc.) and a plate for exclusive use were used. The cells were distributed in an extracellular solution (4 mM KCl, 138 mM NaCl, 1 mM MgCl2, 1.8 mM CaCl2, 5.6 mM glucose, 10 mM HEPES, pH 7.45), and then dispensed in the specified region of the plate, and each of the prepared compound samples was diluted at various concentrations, and then dispensed in the specified region of the plate.
Specifically, eight concentrations per compound were set, and percent inhibition was determined by calculating the percentage of inhibition of the peak current, generated after treating the cells with each concentration of the compound for 50 seconds, relative to the peak current generated before treatment with the compound, and the IC50 value was calculated using the Sigma plot program. In Table 2 below, the percent inhibition of Nav1.7 is rated as follows: […]

T1 sequence (Q15858 whole entry): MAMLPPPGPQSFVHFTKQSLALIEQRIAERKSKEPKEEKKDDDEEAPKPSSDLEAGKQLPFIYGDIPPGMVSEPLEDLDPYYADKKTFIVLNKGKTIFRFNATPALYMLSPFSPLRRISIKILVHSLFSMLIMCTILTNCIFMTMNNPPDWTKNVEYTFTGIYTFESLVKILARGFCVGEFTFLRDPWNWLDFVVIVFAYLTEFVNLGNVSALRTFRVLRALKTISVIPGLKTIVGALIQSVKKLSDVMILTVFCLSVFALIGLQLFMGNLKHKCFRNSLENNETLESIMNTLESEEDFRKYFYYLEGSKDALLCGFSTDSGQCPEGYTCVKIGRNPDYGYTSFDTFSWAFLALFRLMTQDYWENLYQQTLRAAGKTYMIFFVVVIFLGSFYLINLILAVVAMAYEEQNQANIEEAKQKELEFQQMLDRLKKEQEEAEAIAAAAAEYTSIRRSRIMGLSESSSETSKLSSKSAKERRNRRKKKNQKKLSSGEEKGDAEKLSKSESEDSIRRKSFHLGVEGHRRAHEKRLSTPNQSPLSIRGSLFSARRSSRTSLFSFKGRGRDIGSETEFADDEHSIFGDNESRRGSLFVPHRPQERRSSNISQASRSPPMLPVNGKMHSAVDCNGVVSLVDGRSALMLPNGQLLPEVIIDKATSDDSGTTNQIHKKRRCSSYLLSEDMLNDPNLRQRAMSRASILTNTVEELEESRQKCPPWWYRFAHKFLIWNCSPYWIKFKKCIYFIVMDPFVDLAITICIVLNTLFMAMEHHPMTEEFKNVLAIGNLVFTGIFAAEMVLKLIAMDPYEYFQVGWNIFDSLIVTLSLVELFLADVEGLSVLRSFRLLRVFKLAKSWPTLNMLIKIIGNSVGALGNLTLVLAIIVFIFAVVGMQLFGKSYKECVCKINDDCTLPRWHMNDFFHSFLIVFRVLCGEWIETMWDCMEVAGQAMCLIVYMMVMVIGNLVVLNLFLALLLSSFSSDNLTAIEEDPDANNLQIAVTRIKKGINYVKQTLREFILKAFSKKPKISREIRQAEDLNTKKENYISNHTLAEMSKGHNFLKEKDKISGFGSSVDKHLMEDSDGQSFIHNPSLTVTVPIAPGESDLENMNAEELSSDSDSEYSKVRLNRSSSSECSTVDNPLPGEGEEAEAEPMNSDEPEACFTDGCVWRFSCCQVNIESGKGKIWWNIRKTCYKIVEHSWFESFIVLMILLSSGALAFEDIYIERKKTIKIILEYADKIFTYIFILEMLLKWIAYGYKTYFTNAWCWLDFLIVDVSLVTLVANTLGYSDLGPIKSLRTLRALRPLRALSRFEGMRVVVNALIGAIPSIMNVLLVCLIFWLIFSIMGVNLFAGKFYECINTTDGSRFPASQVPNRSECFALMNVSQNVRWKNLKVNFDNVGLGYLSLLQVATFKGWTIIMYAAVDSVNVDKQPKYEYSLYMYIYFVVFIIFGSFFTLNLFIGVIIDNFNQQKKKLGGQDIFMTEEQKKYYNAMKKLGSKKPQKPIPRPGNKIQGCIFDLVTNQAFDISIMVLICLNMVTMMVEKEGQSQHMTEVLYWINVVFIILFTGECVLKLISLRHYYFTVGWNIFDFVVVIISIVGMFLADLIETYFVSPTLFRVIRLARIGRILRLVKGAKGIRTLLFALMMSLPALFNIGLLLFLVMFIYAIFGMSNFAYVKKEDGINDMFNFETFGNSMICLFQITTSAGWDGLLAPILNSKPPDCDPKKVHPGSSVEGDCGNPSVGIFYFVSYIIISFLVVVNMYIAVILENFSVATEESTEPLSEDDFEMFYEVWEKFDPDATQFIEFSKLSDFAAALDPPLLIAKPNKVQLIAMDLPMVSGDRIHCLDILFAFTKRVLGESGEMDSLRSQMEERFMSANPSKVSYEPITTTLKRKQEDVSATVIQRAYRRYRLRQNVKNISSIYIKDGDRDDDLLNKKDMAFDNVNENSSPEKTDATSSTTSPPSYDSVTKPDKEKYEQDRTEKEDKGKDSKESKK

SMILES | IC50 [nM]
Cn1nccc1-c1cc(-c2ccccc2)ncc1Oc1ccc(S(=O)(=O)Nc2nccs2)cc1C#N [Example 2] | > 100
N#Cc1cc(S(=O)(=O)Nc2nccs2)ccc1Oc1cnc(-c2ccccc2F)cc1-c1ccoc1 [Example 6, 3-cyano-4-(6-(2-fluorophenyl)-4-(furan-3-yl)pyridin-3-yloxy)-N-(thiazol-2-yl)benzenesulfonamide] | > 100
N#Cc1cc(S(=O)(=O)Nc2nccs2)ccc1Oc1cnc(-c2cccc(C(F)(F)F)c2)cc1-c1ccoc1 [Example 8, 3-cyano-4-(4-(furan-3-yl)-6-(3-(trifluoromethyl)phenyl)pyridin-3-yloxy)-N-(thiazol-2-yl)benzenesulfonamide] | > 100
N#Cc1cc(S(=O)(=O)Nc2nccs2)ccc1Oc1cnc(-c2ccc(F)nc2)cc1-c1ccoc1 [Example 11, 3-cyano-4-(6′-fluoro-4-(furan-3-yl)-2,3′-bipyridin-5-yloxy)-N-(thiazol-2-yl)benzenesulfonamide] | 51 to 100
N#Cc1cc(S(=O)(=O)Nc2nccs2)ccc1Oc1cnc(-c2cccnc2)cc1-c1ccoc1 [Example 13, 3-cyano-4-(4-(furan-3-yl)-2,3′-bipyridin-5-yloxy)-N-(thiazol-2-yl)benzenesulfonamide] | > 100
N#Cc1cc(S(=O)(=O)Nc2nccs2)ccc1Oc1cnc(-c2ccncc2)cc1-c1ccoc1 [Example 14, 3-cyano-4-(4-(furan-3-yl)-2,4′-bipyridin-5-yloxy)-N-(thiazol-2-yl)benzenesulfonamide] | > 100
N#Cc1cc(S(=O)(=O)Nc2nccs2)ccc1Oc1cnc(-c2cncnc2)cc1-c1ccoc1 [Example 15, 3-cyano-4-(4-(furan-3-yl)-6-(pyrimidin-5-yl)pyridin-3-yloxy)-N-(thiazol-2-yl)benzenesulfonamide] | > 100
O=S(=O)(Nc1nccs1)c1ccc(Oc2cnc(-c3ccoc3)cc2-c2ccoc2)c(F)c1 [Example 17, 4-((4,6-di(furan-3-yl)pyridin-3-yl)oxy)-3-fluoro-N-(thiazol-2-yl)benzenesulfonamide] | > 100
Cn1nccc1-c1cc(-c2cccnc2F)ncc1Oc1ccc(S(=O)(=O)Nc2nccs2)cc1C#N [Example 18, 3-cyano-4-((2′-fluoro-4-(1-methyl-1H-pyrazol-5-yl)-[2,3′-bipyridin]-5-yl)oxy)-N-(thiazol-2-yl)benzenesulfonamide] | > 100
Cn1nccc1-c1cc(-c2ccc(F)nc2)ncc1Oc1ccc(S(=O)(=O)Nc2nccs2)cc1C#N [Example 19, 3-cyano-4-((6′-fluoro-4-(1-methyl-1H-pyrazol-5-yl)-[2,3′-bipyridin]-5-yl)oxy)-N-(thiazol-2-yl)benzenesulfonamide] | > 100
N#Cc1cc(S(=O)(=O)Nc2nccs2)ccc1Oc1cnc(-c2ccsc2)cc1-c1ccoc1 [Example 20, 3-cyano-4-((4-(furan-3-yl)-6-(thiophen-3-yl)pyridin-3-yl)oxy)-N-(thiazol-2-yl)benzenesulfonamide] | > 100
Cn1nccc1-c1cc(-c2cccnc2)ncc1Oc1ccc(S(=O)(=O)Nc2nccs2)cc1F [Example 21, 3-fluoro-4-((4-(1-methyl-1H-pyrazol-5-yl)-[2,3′-bipyridin]-5-yl)oxy)-N-(thiazol-2-yl)benzenesulfonamide] | > 100
Cn1nccc1-c1cc(-c2ccsc2)ncc1Oc1ccc(S(=O)(=O)Nc2nccs2)cc1F [Example 22, 3-fluoro-4-((4-(1-methyl-1H-pyrazol-5-yl)-6-(thiophen-3-yl)pyridin-3-yl)oxy)-N-(thiazol-2-yl)benzenesulfonamide] | 51 to 100
Cn1nccc1-c1cc(-c2ccc(F)cc2)ncc1Oc1ccc(S(=O)(=O)Nc2nccs2)cc1C#N [Example 23, 3-cyano-4-((6-(4-fluorophenyl)-4-(1-methyl-1H-pyrazol-5-yl)pyridin-3-yl)oxy)-N-(thiazol-2-yl)benzenesulfonamide] | > 100
Cn1nccc1-c1cc(-c2ccccc2F)ncc1Oc1ccc(S(=O)(=O)Nc2nccs2)cc1C#N [Example 24, 3-cyano-4-((6-(2-fluorophenyl)-4-(1-methyl-1H-pyrazol-5-yl)pyridin-3-yl)oxy)-N-(thiazol-2-yl)benzenesulfonamide] | > 100
Cn1nccc1-c1cc(-c2ccoc2)ncc1Oc1ccc(S(=O)(=O)Nc2nccs2)cc1C#N [Example 25, 3-cyano-4-((6-(furan-3-yl)-4-(1-methyl-1H-pyrazol-5-yl)pyridin-3-yl)oxy)-N-(thiazol-2-yl)benzenesulfonamide] | > 100
Cn1nccc1-c1cc(-c2cccc(F)c2)ncc1Oc1ccc(S(=O)(=O)Nc2nccs2)cc1C#N [Example 26, 3-cyano-4-((6-(3-fluorophenyl)-4-(1-methyl-1H-pyrazol-5-yl)pyridin-3-yl)oxy)-N-(thiazol-2-yl)benzenesulfonamide] | 51 to 100

Further lines, results first:

IC50 [nM] | SMILES
< 50 | N#Cc1cc(S(=O)(=O)Nc2nccs2)ccc1Oc1cnc(-c2ccccc2)cc1-c1ccoc1 [Example 1, 3-cyano-4-(4-(furan-3-yl)-6-phenylpyridin-3-yloxy)-N-(thiazol-2-yl)benzenesolfonamide]
< 50 | N#Cc1cc(S(=O)(=O)Nc2ncns2)ccc1Oc1cnc(-c2ccccc2)cc1-c1ccoc1 [Example 3, 3-cyano-4-(4-(furan-3-yl)-6-phenylpyridin-3-yloxy)-N-(1,2,4-thiadiazol-5-yl)benzenesulfonamide]
51 to 100 | Cn1nccc1-c1cc(-c2ccccc2)ncc1Oc1ccc(S(=O)(=O)Nc2ncns2)cc1C#N [Example 4, 3-cyano-4-((4-(1-methyl-1H-pyrazol-5-yl)-6-phenylpyridin-3-yl)oxy)-N-(1,2,4-thiadiazol-5-yl)benzenesulfonamide]
< 50 | N#Cc1cc(S(=O)(=O)Nc2nccs2)ccc1Oc1cnc(-c2cccc(F)c2)cc1-c1ccoc1 [Example 5, 3-cyano-4-(6-(3-fluorophenyl)-4-(furan-3-yl)pyridin-3-yloxy)-N-(thiazol-2-yl)benzenesulfonamide]
51 to 100 | N#Cc1cc(S(=O)(=O)Nc2nccs2)ccc1Oc1cnc(-c2ccc(F)cc2)cc1-c1ccoc1 [Example 7, 3-cyano-4-(6-(4-fluorophenyl)-4-(furan-3-yl)pyridin-3-yloxy)-N-(thiazol-2-yl)benzenesulfonamide]
51 to 100 | N#Cc1cc(S(=O)(=O)Nc2nccs2)ccc1Oc1cnc(-c2ccnc(F)c2)cc1-c1ccoc1 [Example 9, 3-cyano-4-(2′-fluoro-4-(furan-3-yl)-2,4′-bipyridin-5-yloxy)-N-(thiazol-2-yl)benzenesulfonamide]
51 to 100 | N#Cc1cc(S(=O)(=O)Nc2nccs2)ccc1Oc1cnc(-c2cccnc2F)cc1-c1ccoc1 [Example 10, 3-cyano-4-(2′-fluoro-4-(furan-3-yl)-2,3′-bipyridin-5-yloxy)-N-(thiazol-2-yl)benzenesulfonamide]
< 50 | N#Cc1cc(S(=O)(=O)Nc2nccs2)ccc1Oc1cnc(-c2ccc(F)nc2F)cc1-c1ccoc1 [Example 12, 3-cyano-4-(2′,6′-difluoro-4-(furan-3-yl)-2,3′-bipyridin-5-yloxy)-N-(thiazol-2-yl)benzenesulfonamide]
< 50 | N#Cc1cc(S(=O)(=O)Nc2nccs2)ccc1Oc1cnc(-c2ccoc2)cc1-c1ccoc1 [Example 16, 3-cyano-4-((4,6-di(furan-3-yl)pyridin-3-yl)oxy)-N-(thiazol-2-yl)benzenesulfonamide]
